This is an account of results in patent publication EP2766361B1, “8-CARBAMOYL-2-(2,3-DISUBSTITUTED PYRID-6-YL)-1,2,3,4-TETRAHYDROISOQUINOLINE DERIVATIVES AS APOPTOSIS-INDUCING AGENTS FOR THE TREATMENT OF CANCER AND IMMUNE AND AUTOIMMUNE DISEASES” (priority 2011, dated 2013).

The subject of this assay is mouse FL5.12 cells transfected with Bcl-xL. Description: FL5.12 cellular assay (cell viability, CellTiter-Glo). The assay is classed as cell-based. Particulars: IL-3-depleted, 3% FBS assay media, 24 hours, read-out: FL5.12 Bcl-xL, -IL3, EC50. On the procedure:
Cell viability was assayed using the CellTiter-Glo assay (Promega Corp., Madison, WI) according to the manufacturer instructions. Individual determinations were the result of duplicate values. […] Table 2. In Vitro Data
On to `Cc1c(C(=O)NC23CC4CC(CC(C4)C2)C3)cccc1-c1ccc(N2CCc3cccc(C(=O)Nc4nc5ccccc5s4)c3C2)nc1C(=O)O` [Example 54, 6-[8-(1,3-benzothiazol-2-ylcarbamoyl)-3,4-dihydroisoquinolin-2(1H)-yl]-3-{2-methyl-3-[tricyclo[3.3.1.1^3,7]dec-1-ylcarbamoyl]phenyl}pyridine-2-carboxylic acid], for which the EC50 is above 1000 nM.
As to `Cc1c(-c2ccc(N3CCc4cccc(C(=O)Nc5nc6ccccc6s5)c4C3)nc2C(=O)O)cccc1N(C)CC12CC3CC(CC(C3)C1)C2` [Example 55, 6-[8-(1,3-benzothiazol-2-ylcarbamoyl)-3,4-dihydroisoquinolin-2(1H)-yl]-3-(2-methyl-3-{methyl[tricyclo[3.3.1.1^3,7]dec-1-ylmethyl]amino}phenyl)pyridine-2-carboxylic acid], the EC50 stood at 47 nM.
Next, `COCCC1(Cn2cc(-c3ccc(N4CCc5cccc(C(=O)Nc6nc7ccccc7s6)c5C4)nc3C(=O)O)cn2)C2CC3CC(C2)CC1C3` (centres unmarked) [Example 56, 6-[8-(1,3-benzothiazol-2-ylcarbamoyl)-3,4-dihydroisoquinolin-2(1H)-yl]-3-(1-{[2-(2-methoxyethyl)tricyclo[3.3.1.1^3,7]dec-2-yl]methyl}-1H-pyrazol-4-yl)pyridine-2-carboxylic acid]: 17 nM; `Cc1c(-c2ccc(N3CCc4cccc(C(=O)Nc5nc6ccccc6s5)c4C3)nc2C(=O)O)nnn1CC12CC3CC(CC(C3)C1)C2` [Example 57, 6-[8-(1,3-benzothiazol-2-ylcarbamoyl)-3,4-dihydroisoquinolin-2(1H)-yl]-3-[5-methyl-1-(tricyclo[3.3.1.1^3,7]dec-1-ylmethyl)-1H-1,2,3-triazol-4-yl]pyridine-2-carboxylic acid]: 12 nM; `COC12CC3CC(CC(Cn4c(C#N)cc(-c5ccc(N6CCc7cccc(C(=O)Nc8nc9ccccc9s8)c7C6)nc5C(=O)O)c4C)(C3)C1)C2` [Example 58, 6-[8-(1,3-benzothiazol-2-ylcarbamoyl)-3,4-dihydroisoquinolin-2(1H)-yl]-3-(5-cyano-1-{[3-methoxytricyclo[3.3.1.1^3,7]dec-1-yl]methyl}-2-methyl-1H-pyrrol-3-yl)pyridine-2-carboxylic acid]: 0.3 nM.
The value for `N#Cc1c(-c2ccc(N3CCc4cccc(C(=O)Nc5nc6ccccc6s5)c4C3)nc2C(=O)O)cccc1S(=O)(=O)C12CC3CC(CC(C3)C1)C2` [Example 60, 6-[8-(1,3-benzothiazol-2-ylcarbamoyl)-3,4-dihydroisoquinolin-2(1H)-yl]-3-[2-cyano-3-(tricyclo[3.3.1.1^3,7]dec-1-ylsulfonyl)phenyl]pyridine-2-carboxylic acid] was 55 nM.
In the case of `Cc1c(-c2ccc(N3CCc4cccc(C(=O)Nc5nc6ccccc6s5)c4C3)nc2C(=O)O)ccnc1N(C)C1CCCCCCC1` [Example 61, 6-[8-(1,3-benzothiazol-2-ylcarbamoyl)-3,4-dihydroisoquinolin-2(1H)-yl]-2'-[cyclooctyl(methyl)amino]-3'-methyl-3,4'-bipyridine-2-carboxylic acid], the EC50 was 10 nM.
As to `Cc1c(-c2ccc(N3CCc4cccc(C(=O)Nc5nc6ccccc6s5)c4C3)nc2C(=O)O)cnn1CC1C2CC3CC(C2)CC1C3` (centres unmarked) [Example 62, 6-[8-(1,3-benzothiazol-2-ylcarbamoyl)-3,4-dihydroisoquinolin-2(1H)-yl]-3-[5-methyl-1-(tricyclo[3.3.1.1^3,7]dec-2-ylmethyl)-1H-pyrazol-4-yl]pyridine-2-carboxylic acid], the EC50 came to 0.8 nM.
Take `COCCOCCOC12CC3CC(CC(Cn4ncc(-c5ccc(N6CCc7cccc(C(=O)Nc8nc9ccccc9s8)c7C6)nc5C(=O)O)c4C)(C3)C1)C2` [Example 63, 6-[8-(1,3-benzothiazol-2-ylcarbamoyl)-3,4-dihydroisoquinolin-2(1H)-yl]-3-[1-({3-[2-(2-methoxyethoxy)ethoxy]tricyclo[3.3.1.1^3,7]dec-1-yl}methyl)-5-methyl-1H-pyrazol-4-yl]pyridine-2-carboxylic acid]: the EC50 amounted to 3 nM.
With `Cc1c(C(=O)N(C)C2C3CC4CC(C3)CC2C4)cccc1-c1ccc(N2CCc3cccc(C(=O)Nc4nc5ccccc5s4)c3C2)nc1C(=O)O` (centres unmarked) [Example 64], the EC50 stood at 26 nM.
In the case of `Cc1c(-c2ccc(N3CCc4cccc(C(=O)Nc5nc6ccccc6s5)c4C3)nc2C(=O)O)cnn1CC1(OCCS(C)(=O)=O)CCCCCCC1` [Example 65, 6-[8-(1,3-benzothiazol-2-ylcarbamoyl)-3,4-dihydroisoquinolin-2(1H)-yl]-3-[5-methyl-1-({1-[2-(methylsulfonyl)ethoxy]cyclooctyl}methyl)-1H-pyrazol-4-yl]pyridine-2-carboxylic acid], the EC50 was determined as 1 nM.
Next, `Cc1c(-c2ccc(N3CCc4cccc(C(=O)Nc5nc6ccccc6s5)c4C3)nc2C(=O)O)nnn1CC12CC3CC(CC(C3)O1)C2` [Example 66, 6-[8-(1,3-benzothiazol-2-ylcarbamoyl)-3,4-dihydroisoquinolin-2(1H)-yl]-3-[5-methyl-1-(2-oxatricyclo[3.3.1.1^3,7]dec-1-ylmethyl)-1H-1,2,3-triazol-4-yl]pyridine-2-carboxylic acid]: 26 nM.
Consider `Cc1c(-c2ccc(N3CCc4cccc(C(=O)Nc5nc6cccnc6s5)c4C3)nc2C(=O)O)cnn1CC12CC3CC(CC(C3)O1)C2` [Example 67, 3-[5-methyl-1-(2-oxatricyclo[3.3.1.1^3,7]dec-1-ylmethyl)-1H-pyrazol-4-yl]-6-[8-([1,3]thiazolo[5,4-b]pyridin-2-ylcarbamoyl)-3,4-dihydroisoquinolin-2(1H)-yl]pyridine-2-carboxylic acid], for which the EC50 was 9 nM.
The value for `Cc1c(-c2ccc(N3CCc4cccc(C(=O)Nc5nc6ccccc6s5)c4C3)nc2C(=O)O)cccc1N(C)C(=O)C12CC3CC(CC(C3)O1)C2` [Example 68, 6-[8-(1,3-benzothiazol-2-ylcarbamoyl)-3,4-dihydroisoquinolin-2(1H)-yl]-3-{2-methyl-3-[methyl(2-oxatricyclo[3.3.1.1^3,7]dec-1-ylcarbonyl)amino]phenyl}pyridine-2-carboxylic acid] was 22 nM; that for `Cc1c(-c2ccc(N3CCc4cccc(C(=O)Nc5nc6ccccc6s5)c4C3)nc2C(=O)O)cccc1S(=O)(=O)N(C)C1C2CC3CC(C2)CC1C3` (centres unmarked) [Example 69, 6-[8-(1,3-benzothiazol-2-ylcarbamoyl)-3,4-dihydroisoquinolin-2(1H)-yl]-3-(2-methyl-3-{methyl[tricyclo[3.3.1.1^3,7]dec-2-yl]sulfamoyl}phenyl)pyridine-2-carboxylic acid] was 449 nM.
For `Cc1c(-c2ccc(N3CCc4cccc(C(=O)Nc5nc6ccccc6s5)c4C3)nc2C(=O)O)ccnc1S(=O)(=O)C12CC3CC(CC(C3)C1)C2` [Example 70, 6-[8-(1,3-benzothiazol-2-ylcarbamoyl)-3,4-dihydroisoquinolin-2(1H)-yl]-3'-methyl-2'-(tricyclo[3.3.1.1^3,7]dec-1-ylsulfonyl)-3,4'-bipyridine-2-carboxylic acid], the EC50 turned out to be 72 nM.
For the compound `Cc1c(-c2ccc(N3CCc4cccc(C(=O)Nc5nc6ccccc6s5)c4C3)nc2C(=O)O)cc(C#N)n1CC12CC3CC(CC(C3)O1)C2` [Example 71, 6-[8-(1,3-benzothiazol-2-ylcarbamoyl)-3,4-dihydroisoquinolin-2(1H)-yl]-3-[5-cyano-2-methyl-1-(2-oxatricyclo[3.3.1.1^3,7]dec-1-ylmethyl)-1H-pyrrol-3-yl]pyridine-2-carboxylic acid], the EC50 amounted to 1 nM.
